Here are results for six molecules from ChEMBL document CHEMBL1131839, “Synthesis and dopamine receptor modulating activity of unsubstituted and substituted triproline analogues of L-prolyl-L-leucyl-glycinamide (PLG)” (1999).

Values joined by “and” are separate entries in the source; they are usually repeats but may differ in a detail not shown here. Equal values may be shown once.

In experiment [1] the test system is Rattus norvegicus. The experiment is described as follows: Maximal increase in rotations at a dose of 1 mg/kg, ip in 6-hydroxydopamine-lesioned rat model of hemi-parkinsonism. Format: functional. Particulars: route intraperitoneal.
Experiment [2] can be described thus: Ratio of RH to RL was determined in the absence of GPP(NH)p pretreated with the compound at 100 nM.
The target in experiment [3] is D(2) dopamine receptor (Bos taurus) (UniProt P20288). The experiment is described as follows: Percentage of Dopamine receptor D2 in the high affinity form(RH) for the agonist was determined in the presence of GPP(NH)p pretreated with the compound at 100 nM. It counts as functional.
Chain of D(2) dopamine receptor (Bos taurus) (P20288 whole entry): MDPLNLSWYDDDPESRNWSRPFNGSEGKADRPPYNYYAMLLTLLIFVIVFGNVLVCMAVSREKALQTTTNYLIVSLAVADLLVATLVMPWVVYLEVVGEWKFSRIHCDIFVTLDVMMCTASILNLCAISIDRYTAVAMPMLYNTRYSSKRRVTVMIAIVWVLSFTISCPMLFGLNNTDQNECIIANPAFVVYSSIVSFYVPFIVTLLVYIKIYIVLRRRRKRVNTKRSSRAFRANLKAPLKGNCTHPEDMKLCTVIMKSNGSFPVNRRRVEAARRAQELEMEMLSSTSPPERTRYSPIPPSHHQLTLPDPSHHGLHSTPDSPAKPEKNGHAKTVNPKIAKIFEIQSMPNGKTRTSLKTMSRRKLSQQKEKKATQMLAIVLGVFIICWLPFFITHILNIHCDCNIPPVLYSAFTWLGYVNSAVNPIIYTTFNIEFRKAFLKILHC
The target is the same in experiment [4]. As to the kind of experiment: Percentage of Dopamine receptor D2 in the low affinity form(RL) for the agonist was determined in the absence of GPP(NH)p pretreated with the compound at 100 nM. It counts as functional.
Experiment [5] shares this target. The experiment is described as follows: Inhibitor constant(Ki) for Dopamine receptor D2 calculated for low affinity(KL) component of [3H]spiperidol binding in the presence of GPP(NH)p pretreated with the compound at 100 nM.
Experiment [6] shares this target. As to the kind of experiment: Percentage of Dopamine receptor D2 in the low affinity form(RL) for the agonist was determined in the presence of GPP(NH)p pretreated with the compound at 100 nM. Format: functional.
Experiment [7] shares this target. The experiment is described as follows: Inhibitor constant(Ki) for Dopamine receptor D2 calculated for high affinity(KH) component of [3H]spiperidol binding in the presence of GPP(NH)p pretreated with the compound at 100 nM.
Experiment [8] shares this target. The experiment is described as follows: Inhibitor constant(Ki) for Dopamine receptor D2 calculated for low affinity(KL) component of [3H]spiperidol binding in the absence of GPP(NH)p pretreated with the compound at 100 nM.
Experiment [9] can be described thus: Ratio of RH to RL was determined in the presence of GPP(NH)p pretreated with the compound at 100 nM.
Experiment [10] addresses D(2) dopamine receptor (Bos taurus) (UniProt P20288). The experiment is described as follows: Inhibitor constant(Ki) for Dopamine receptor D2 calculated for high affinity(KH) component of [3H]spiperidol binding in the absence of GPP(NH)p pretreated with the compound at 100 nM.
Experiment [11] shares this target. The experiment is described as follows: Percentage of Dopamine receptor D2 in the high affinity form(RH) for the agonist was determined in the absence of GPP(NH)p pretreated with the compound at 100 nM. Format: functional.
Experiment [12] deals with Rattus norvegicus. The experiment is described as follows: Maximal increase in rotations at a dose of 0.1 ug/kg, ip in 6-hydroxydopamine-lesioned rat model of hemi-parkinsonism. Format: functional.
In experiment [13] the test system is Rattus norvegicus. The experiment is described as follows: Maximal increase in rotations at a dose of 1 ug/kg, ip in 6-hydroxydopamine-lesioned rat model of hemi-parkinsonism. Format: functional.
The subject of experiment [14] is Rattus norvegicus. The experiment is described as follows: Maximal increase in rotations at a dose of 10 ug/kg, ip in 6-hydroxydopamine-lesioned rat model of hemi-parkinsonism. It counts as functional.
For experiment [15], the target named is D(2) dopamine receptor (Bos taurus) (UniProt P20288). The experiment is described as follows: Inhibitor constant(Ki) for Dopamine receptor D2 calculated for […] component of [3H]-spiperidol binding in the absence of GPP(NH)p pretreated with the compound at 100 nM.

Consider `CC(C)CC(NC(=O)[C@@H]1CCCN1)C(=O)NCC(N)=O` (single isomer, unassigned), for which the Increase with Rattus norvegicus [1] amounted to 30%.
Regarding `NC(=O)[C@H]1CCCN1C(=O)[C@@H]1CCCN1C(=O)[C@@H]1CCCN1`, the Ratio in experiment [2] is 2.45; in experiment [9], 2.03. Moreover, the results for the RH in [3] and in experiment [11] were 67% and 71%, respectively. In addition, the RL in [4] was 29%; in [6], 33%. Also, the KL in experiment [5] was 140 nM; in experiment [8], 153 nM. Further, the KH in experiment [7] is 0.054 nM; in experiment [10], 0.086 nM.
In turn, `CC(C)C[C@H](NC(=O)[C@@H]1CCCN1)C(=O)N1CCCC1C(N)=O` (single isomer, unassigned) showed an Increase with Rattus norvegicus [12] of 30%.
In the experiment with Rattus norvegicus [13], `CC(C)C[C@H](NC(=O)[C@@H]1CCCN1)C(=O)N1CCC[C@@H]1C(N)=O` gave an Increase of 26%.
Consider `NC(=O)[C@@H]1CCCN1C(=O)[C@@H]1CCCN1C(=O)[C@@H]1CCCN1`, for which the Increase in the experiment with Rattus norvegicus [14] is listed as 47%. The figures for the Ratio in experiment [2] and in experiment [9] were 2.7 and 1.17, respectively. The RH in experiment [3] was 54%; in [11], 73%. Moreover, the RL turned out to be 27% in [4] and 46% in experiment [6]. In addition, the KL in [5] was 88 nM; in [8], 110 nM. For the same molecule, the KH was 0.089 nM in [7] and 0.05 nM in experiment [10].
Take `C[C@@H]1CCN(C(=O)[C@@H]2CCCN2)[C@@H]1C(=O)N1CCC[C@H]1C(N)=O`: the Ratio in [2] was determined as 1.08; in [9], 1.17. Also, the RH in experiment [3] was found to be 54%. Further, the values for the RL in [4] and in experiment [6] were 48% and 46%, respectively. Besides, the KH was 0.087 nM in experiment [7]; 0.052 nM and 52% in experiment [10]. For the same molecule, the KL in experiment [7] is 106 nM; in experiment [15] it was 98 nM.
